Assays:
[1] = system: neuronal cells; test: H2O2 neurotoxicity with chelators (LDH secretion); type: cell-based
Experimental: There is reported that intracellular free zinc is increased in a neurotoxicity mechanism due to hydrogen peroxide, wherein hydrogen peroxide toxicity is reduced when the cells are treated using the zinc chelator. […] Therefore, in order to monitor whether effects of the drug #28 are associated with a reduction of zinc in the above case, the neuronal cells were treated with hydrogen peroxide (H2O2), a zinc chelator such as TPEN or CaEDTA and a calcium chelator such as ZnEDTA, followed by monitoring neurotoxicity (LDH secretion).

[2] = system: mouse; conditions: administered to a mouse; cited from earlier work
[3] = Calcium chelation with Fura-2 dye (test tube); type: physicochemical; conditions: Fura-2 dye, test tube
Experimental: In order to determine whether the above result is obtained by the chelation of Ca^2+ ions other than the drug #28, protective effects of the drug #28 (10 to 60 μM) after treatment using ionomycin, which is a calcium ion permeable carrier (‘calcium ionophore’) directly increasing the intracellular calcium concentration, were under observation. Further, using a Fura-2 dye that is combined with calcium to represent fluorescence, it was monitored whether the drug #28 is combined with calcium on a test tube and represents chelating effects.

[4] = system: cultured cerebral cortex neurons of a mouse; test: Zinc ion permeable carrier test, ZinPyr-1; type: cell-based; conditions: #28 0.05 μM, clioquinol 0.5 μM
Experimental: ZinPyr-1 is a fluorescent dye which has a lower Kd value than that of FluoZin-3 and is used to measure a change in a zinc concentration even at a lower concentration. Whether the drug #28 of the present invention can act as an ion permeable carrier was under observation using ZinPyr-1. More particularly, the cultured cerebral cortex neurons of a mouse were treated with ZinPyr-1 then treated with the drug #28 (0.05 μM) and clioquinol (0.5 μM) in a typically used neuronal cell culture medium, so as to determine a change in zinc ion concentrations in the neurons. Also, a non-treatment group was used as a control group.
Therefore, after adding a further 0.5 μM concentration of zinc to the cell culture medium, a change in zinc concentration in the cells was under observation.

[5] = system: mouse cortical cultures; test: TPEN-induced caspase-3 activity; type: cell-based
Source text: (§1) Generally, application of TPEN as a zinc chelator easily flowing into the cells causes a cell death in the form of typical apoptosis (EDTA is not introduced into the cells). When adding zinc to the above treatment, intracellular free zinc ions are retained thus to reduce neuronal death and further reduce caspase-3 protease activity in the apoptosis process. Under expectation such that: the drug #28 and clioquinol may not only serve as a chelator but also play a role of an ion permeable carrier; these drugs flow into cells as combined with zinc; thereafter, the zinc is removed from the drug because a concentration of free zinc in the cytoplasm is too low; therefore, the concentration of free zinc in the cytoplasm is increased thus to reduce neurotoxicity due to TPEN, caspase-3 activity and neurotoxicity (LDH secretion) were under observation after treatment using zinc, the drug #28 and clioquinol.

[6] = system: mouse cortical cultures; test: TPEN-induced neurotoxicity (LDH secretion); type: cell-based
Source text: as §1

[7] = Free zinc concentration by fluorescent dye (Newport green DCF, FluoZin-3); type: physicochemical; conditions: 20 μM; Newport green DCF or FluoZin-3
Experimental: Further, in conjunction with clioquinol (20 μM) or the drug #28 (20 μM), a zinc fluorescent dye, i.e., Newport green DCF (0.5 μM, Kd(Zn)=1 uM) or FluoZin-3 (0.5 μM, Kd(Zn)=15 nM) was used for measurement of free zinc concentration.

[8] = system: cultured cerebral cortex neurons of a mouse; test: H2O2-induced neurotoxicity, propidium iodide staining; type: cell-based; conditions: H2O2 100 μM 4.5 hours; 10 μM drug; excepted drugs = no significant inhibition
Experimental: More particularly, the neurotoxicity model for observation of neurotoxicity inhibitory effects includes excitotoxicity, oxidative damage, etc. which are classified as a cause mechanism of stroke. NMDA (N-methyl-D-aspartate) was used as the excitotoxicity model while the oxidative model used herein was a hydrogen peroxide (H2O2) toxicity model. First, using NMDA (50 μM) or H2O2 (100 μM), the cultured cerebral cortex neurons of a mouse were treated for 1.5 hours and 4.5 hours, respectively, resulting in induction of neurotoxicity. The neurons were further treated with the selected 12 drugs (10 μM) as well as the existing selected drug #28 (20 μM). Then, after staining the neurons with propidium iodide (PI), the stained cells were quantified to determine a degree of cell death.

[9] = molecular target: T1, recombinant AMPK (α2/β1/γ1) (Homo sapiens, UniProt P54646); test: AMPK enzymatic activity assay (CycLex kit); type: biochemical; conditions: 10 μM
T1 construct: purchased CycLex, Japan
Experimental: More particularly, AMPK enzymatic activity was measured by an AMPK activity assay kit (CycLex, Japan) and recombinant AMPK (α2/β1/γ1 CycLex, Japan).

[10] = system: cultured cerebral cortex neurons; test: Zinc neurotoxicity, TUNEL staining and LDH assay; type: cell-based, mouse; conditions: 300 μM ZnCl2 10 min, 10 hours later; 20 μM compound
Experimental: Cerebral cortex neurons of a mouse used in the present invention were extracted from the mouse embryos brain and cultured, followed by further culturing the same using a Dulbecco's modified Eagle's medium (DMEM, Gibco, Grand Island, N.Y., US) containing 5% fetal bovine serum (FBS) and 5% horse serum (HS) under conditions of 95% humidity, 5% CO2 and 37° C. temperature. For activation and differentiation of the above cells, these cells were proliferated at a density of 2×10^4 cells in 24-well tissue culture plate. Further, prior to treatment using zinc and the compounds, the cells were incubated in MEM medium without FBS and HS.
More particularly, the cultured cerebral cortex neurons according to the embodiment of the present invention were treated with 300 μM zinc (ZnCl2) for 10 minutes then removed. 10 hours later, cytotoxicity was observed by TUNEL staining or LDH (Lactate Dehydrogenase). Further, these cells were treated with AMPK inhibitor, that is, 20 μM compound C (+Cpd C, Tocris), followed by observation whether neurotoxicity is reduced or not.

[11] = system: cerebral cortex neurons; test: Western blot of Bim and caspase-3 after zinc treatment; type: cell-based, mouse; conditions: 300 μM ZnCl2, 20 μM compound
Experimental: More particularly, the cerebral cortex neurons were treated with 300 μM zinc (ZnCl2) for 2, 3, 4, 5 and 6 hours to induce zinc toxicity. From each sample, protein was separated and subjected to Western blot and treatment using 20 μM compound C (+Cpd C) as an AMPK inhibitor, so as to identify a relationship between the zinc toxicity and apoptosis.

T1 sequence (P54646 whole entry): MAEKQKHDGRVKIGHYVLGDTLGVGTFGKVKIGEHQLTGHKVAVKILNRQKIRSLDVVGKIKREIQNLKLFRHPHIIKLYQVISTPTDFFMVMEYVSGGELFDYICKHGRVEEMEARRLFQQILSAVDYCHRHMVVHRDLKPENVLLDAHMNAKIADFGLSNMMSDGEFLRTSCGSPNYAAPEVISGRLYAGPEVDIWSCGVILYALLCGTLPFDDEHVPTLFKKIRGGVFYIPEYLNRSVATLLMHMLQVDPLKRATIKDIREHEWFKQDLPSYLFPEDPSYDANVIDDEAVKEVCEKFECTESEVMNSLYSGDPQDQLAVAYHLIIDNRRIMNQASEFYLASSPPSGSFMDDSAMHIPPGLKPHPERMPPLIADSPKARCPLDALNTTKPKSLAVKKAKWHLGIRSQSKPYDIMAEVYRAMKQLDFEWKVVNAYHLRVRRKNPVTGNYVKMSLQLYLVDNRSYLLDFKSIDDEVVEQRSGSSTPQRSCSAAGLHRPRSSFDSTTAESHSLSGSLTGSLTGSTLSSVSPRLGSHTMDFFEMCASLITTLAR
T1 sequence (Q9Y478 whole entry partner): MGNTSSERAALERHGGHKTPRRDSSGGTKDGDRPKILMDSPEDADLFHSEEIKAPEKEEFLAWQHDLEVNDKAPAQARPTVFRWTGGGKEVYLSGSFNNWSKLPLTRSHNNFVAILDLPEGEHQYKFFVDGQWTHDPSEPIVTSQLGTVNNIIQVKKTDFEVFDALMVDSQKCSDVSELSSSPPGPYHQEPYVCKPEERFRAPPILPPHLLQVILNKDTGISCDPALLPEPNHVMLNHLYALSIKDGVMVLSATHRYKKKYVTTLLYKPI
T1 sequence (P54619 whole entry partner): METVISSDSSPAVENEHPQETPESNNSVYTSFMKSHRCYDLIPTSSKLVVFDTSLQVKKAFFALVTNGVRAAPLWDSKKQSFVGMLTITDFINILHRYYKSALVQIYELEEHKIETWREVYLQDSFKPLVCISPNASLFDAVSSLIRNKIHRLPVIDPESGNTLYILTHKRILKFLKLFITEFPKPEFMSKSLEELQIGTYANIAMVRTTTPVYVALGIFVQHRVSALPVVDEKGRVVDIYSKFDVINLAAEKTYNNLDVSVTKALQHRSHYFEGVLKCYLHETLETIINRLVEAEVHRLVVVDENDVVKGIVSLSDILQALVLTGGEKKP

O=C([O-])CN(CCN(CC(=O)O)CC(=O)O)CC(=O)[O-].[Zn+2] [ZnEDTA]
neurotoxicity caused by hydrogen peroxide [1]: did not inhibit toxicity

C=C1C(=O)OC(CCCCCCCC)C1C(=O)O (stereo not drawn) [Compound C75]
size of infarcted part [2]: significantly reduces a size of an infracted part

O=C([O-])CN(CCN(CC(=O)[O-])CC(=O)[O-])CC(=O)[O-].[Ca+2].[Na+].[Na+] [CaEDTA]
neurotoxicity caused by hydrogen peroxide [1]: significantly reduced toxicity

O=C(O)CN(CCN(CC(=O)O)CC(=O)O)CC(=O)O [EDTA, reference compound]
chelating effects for calcium [3]: good chelating effects at a low calcium concentration

Oc1c(I)cc(Cl)c2cccnc12 [clioquinol, reference compound]
increase of zinc in neurons, general culture conditions [4]: an increase of zinc by clioquinol was observed
caspase-3 activity induced by TPEN [5]: significantly reduce caspase-3 activity induced by TPEN
neurotoxicity by TPEN [6]: decrease neurotoxicity by TPEN
free zinc ions [7]: reduce free zinc ions

c1ccc(CN(CCN(Cc2ccccn2)Cc2ccccn2)Cc2ccccn2)nc1 [TPEN, N,N,N′,N′-tetrakis (2-pyridylmethyl) ethylenediamine]
neurotoxicity caused by hydrogen peroxide [1]: reduced neurotoxicity caused by hydrogen peroxide

[Cl-].[Cl-].[Zn+2] [zinc]
caspase-3 activity induced by TPEN [5]: significantly reduce caspase-3 activity induced by TPEN
neurotoxicity by TPEN [6]: decrease neurotoxicity by TPEN

Cc1cccc(NC2=NC(=O)/C(=C/c3c[nH]c4ccccc34)S2)c1C [Compound 4B04, (5Z)-2-[(2,3-Dimethylphenyl)amino]-5-(1H-indol-3-ylmethylene)-1,3-thiazol-4(5H)-one]
inhibition of H2O2-induced neurotoxicity [8]: other than two drugs

Cc1ccccc1NC1=NC(=O)/C(=C/c2c[nH]c3ccccc23)S1 [Compound 4B03, (5Z)-5-(1H-Indol-3-ylmethylene)-2-[(2-methylphenyl)amino]-1,3-thiazol-4(5H)-one]
inhibition of H2O2-induced neurotoxicity [8]: other than two drugs

c1cc(-c2cnn3cc(-c4ccc(OCCN5CCCCC5)cc4)cnc23)ccn1 [Compound C]
size of infarcted part [2]: significantly reduces a size of an infracted part
Mean (% remaining activity) [9]: 5.3000%
zinc neurotoxicity (TUNEL staining and LDH assay) [10]: significantly reduced
increase in Bim caused by zinc toxicity [11]: reduce
increase in caspase-3 activity caused by zinc toxicity [11]: reduce
